For assay [1], the target named is T1, HCV NS3/4A protease complex, H77 strain (Hepatitis C virus genotype 1a, UniProt P27958, C1454S/C1711G).
T1 construct: DNA encoding the recombinant HCV NS3/4A protease complex (amino acids 1027 to 1711) for these strains; inferred from Ni-NTA purification and the pET21b vector; made in house; host or cells: Escherichia coli BL21 (DE3)
Kind of assay: FRET peptide assay to monitor HCV NS3/4A proteolytic activity (H77 strain). As to conditions: read-out: IC50, H177 strain. Type of assay: biochemical, HCV genotype 1a. The source says: (§1) HCV NS3 protease complexes, derived from the BMS strain, H77 strain or J4L6S strain, were generated, as described below. These purified recombinant proteins were generated for use in a homogeneous assay (see below) to provide an indication of how effective compounds of the present disclosure would be in inhibiting HCV NS3 proteolytic activity.
(§2) Serum from an HCV-infected patient was obtained from Dr. T. Wright, San Francisco Hospital. An engineered full-length cDNA (compliment deoxyribonucleic acid) template of the HCV genome (BMS strain) was constructed from DNA fragments obtained by reverse transcription-PCR (RT-PCR) of serum RNA (ribonucleic acid) and using primers selected on the basis of homology between other genotype 1a strains. From the determination of the entire genome sequence, a genotype 1a was assigned to the HCV isolate according to the classification of Simmonds et al. (See P Simmonds, K A Rose, S Graham, S W Chan, F McOmish, B C Dow, E A Follett, P L Yap and H Marsden, J. Clin. Microbiol., 31(6), 1493-1503 (1993)). […]

The target in assay [2] is T2, HCV NS3/4A protease complex, J4L6S strain (Hepatitis C virus genotype 1b, UniProt O92972, C1454S/C1711G).
T2 construct: DNA encoding the recombinant HCV NS3/4A protease complex (amino acids 1027 to 1711) for these strains; inferred from Ni-NTA purification and the pET21b vector; made in house; host or cells: Escherichia coli BL21 (DE3)
T2 sequence (O92972 1027-1711 C1454S/C1711G, one chain of several): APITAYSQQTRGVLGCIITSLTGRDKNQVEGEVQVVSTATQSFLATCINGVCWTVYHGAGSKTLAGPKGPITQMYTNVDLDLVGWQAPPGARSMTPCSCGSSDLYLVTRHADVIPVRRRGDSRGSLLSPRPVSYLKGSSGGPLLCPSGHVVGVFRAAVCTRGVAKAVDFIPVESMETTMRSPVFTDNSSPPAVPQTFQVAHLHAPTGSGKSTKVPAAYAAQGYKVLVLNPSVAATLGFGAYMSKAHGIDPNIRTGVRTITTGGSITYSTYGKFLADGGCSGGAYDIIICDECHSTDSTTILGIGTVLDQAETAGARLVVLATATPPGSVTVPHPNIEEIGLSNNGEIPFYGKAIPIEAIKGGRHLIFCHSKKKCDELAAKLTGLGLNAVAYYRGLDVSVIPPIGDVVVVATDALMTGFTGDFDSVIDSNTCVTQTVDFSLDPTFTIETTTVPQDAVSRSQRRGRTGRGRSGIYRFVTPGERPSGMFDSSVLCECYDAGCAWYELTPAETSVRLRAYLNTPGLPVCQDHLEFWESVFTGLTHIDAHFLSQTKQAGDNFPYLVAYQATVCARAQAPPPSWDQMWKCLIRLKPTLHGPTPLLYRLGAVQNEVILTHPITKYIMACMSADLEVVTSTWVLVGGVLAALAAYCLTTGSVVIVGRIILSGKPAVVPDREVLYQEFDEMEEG
Kind of assay: FRET peptide assay to monitor HCV NS3/4A proteolytic activity (J4L6S strain). As to conditions: published J4L6S strain. It is filed as biochemical, HCV genotype 1b.
From the text: as §1, §2

Assay [3] has as its system human pancreatic chymotrypsin. Kind of assay: Specificity assay, chymotrypsin. As to conditions: read-out: Chymotrypsin activity in the specificity assays. Type of assay: biochemical. Here is the method: The specificities of compounds of the present disclosure were determined against a variety of serine proteases: human neutrophil elastase (HNE), porcine pancreatic elastase (PPE) and human pancreatic chymotrypsin and one cysteine protease: human liver cathepsin B. In all cases a 96-well plate format protocol using a fluorometric Amino-Methyl-Coumarin (AMC) substrate specific for each enzyme was used as described previously (PCT Patent Application No. WO 00/09543) with some modifications to the serine protease assays. All enzymes were purchased from Sigma, EMDbiosciences while the substrates were from Bachem, Sigma and EMDbiosciences.
Compound concentrations varied from 100 to 0.4 μM depending on their potency. The enzyme assays were each initiated by addition of substrate to enzyme-inhibitor pre-incubated for 10 min at room temperature and hydrolysis to 15% conversion as measured on cytofluor.
50 mM Tris(hydroxymethyl)aminomethane hydrochloride (Tris-HCl) pH 8, 0.5 M Sodium Sulfate (Na2SO4), 50 mM NaCl, 0.1 mM EDTA, 3% DMSO, 0.01% Tween-20 with 5 μM LLVY-AMC and 1 nM Chymotrypsin.
The percentage of inhibition was calculated using the formula: [1−((UVinh−UVblank)/(UVctl−UVblank))]×100
A non-linear curve fit was applied to the inhibition-concentration data, and the 50% effective concentration (IC50) was calculated by the use of Excel XLfit software.

The structures appear in SMILES notation.

T1 sequence (P27958 1027-1711 C1454S/C1711G, one chain of several): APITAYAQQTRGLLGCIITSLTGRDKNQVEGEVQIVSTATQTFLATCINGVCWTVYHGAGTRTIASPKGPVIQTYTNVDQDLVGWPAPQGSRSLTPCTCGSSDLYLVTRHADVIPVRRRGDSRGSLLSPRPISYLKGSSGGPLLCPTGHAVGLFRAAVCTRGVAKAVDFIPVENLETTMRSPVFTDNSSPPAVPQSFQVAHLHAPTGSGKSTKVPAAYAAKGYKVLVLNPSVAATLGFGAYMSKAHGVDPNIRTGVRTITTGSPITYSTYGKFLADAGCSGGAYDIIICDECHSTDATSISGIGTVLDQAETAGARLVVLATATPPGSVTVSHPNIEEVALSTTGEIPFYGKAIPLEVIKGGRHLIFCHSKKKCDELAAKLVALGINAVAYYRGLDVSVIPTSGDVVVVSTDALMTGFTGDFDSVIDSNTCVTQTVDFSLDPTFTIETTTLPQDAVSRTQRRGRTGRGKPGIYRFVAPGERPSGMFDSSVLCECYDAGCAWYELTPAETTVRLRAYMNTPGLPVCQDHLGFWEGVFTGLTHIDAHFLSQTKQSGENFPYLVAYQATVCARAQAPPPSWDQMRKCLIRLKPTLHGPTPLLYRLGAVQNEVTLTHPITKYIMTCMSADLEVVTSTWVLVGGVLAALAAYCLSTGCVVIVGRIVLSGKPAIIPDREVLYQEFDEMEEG

With `C=C[C@@H]1C[C@]1(NC(=O)[C@@H]1C[C@@H](Oc2ncc(OC)c3ccc(Cl)cc23)CN1C(=O)[C@@H](Nc1nc(-c2cccc(OC(F)(F)F)c2)cs1)C(C)(C)C)C(=O)NS(=O)(=O)C1CC1` [Example 68], the values for the IC50 in assay [1], in assay [2] and in assay [3] were 1.9 nM, 0.9 nM and 3000 nM, respectively.

Values taken from US8163921B2, “Hepatitis C virus inhibitors” (Bristol-Myers Squibb Company, priority 2008, dated 2012).
